From ChEMBL document CHEMBL3046332, “Ultrastructural effects of pyridalyl, an insecticidal agent, on epidermal cells of Spodoptera litura larvae and cultured insect cells Sf9” (J Pestic Sci, 2006)
Activity calls are given as the source filed them. The rule behind the calls is not given here.

Legend:
[1] = system: Spodoptera litura; assay: Insecticidal activity against Spodoptera litura larvae assessed as epidermal cell nuclear change at 100 ng measured after 2 hr by ultrastructural analysis/electron microscopy; type: functional, organism-based
[2] = system: Sf9; assay: Ultrastructural effect on Spodoptera frugiperda (fall armyworm) sf9 cells assessed as swollen mitochondria at 1 uM measured for 8 hr by electron microscopy; type: functional, cell-based
[3] = system: Spodoptera litura; assay: Insecticidal activity against Spodoptera litura larvae assessed as symptoms at 100 ng measured after 2 hr; type: functional, organism-based
[4] = system: Spodoptera litura; assay: Insecticidal activity against Spodoptera litura larvae assessed as dorsal aorta at 100 ng measured after 6 hr by ultrastructural analysis/electron microscopy; type: functional, organism-based
[5] = system: Spodoptera litura; assay: Insecticidal activity against Spodoptera litura larvae assessed as enlarged mitochondria in epidermal cell at 100 ng measured after 4 hr by ultrastructural analysis/electron microscopy; type: functional, organism-based
[6] = system: Spodoptera litura; assay: Insecticidal activity against Spodoptera litura larvae assessed as condensed and shrunken epidermal cell at 100 ng measured after 6 hr by ultrastructural analysis/electron microscopy; type: functional, organism-based
[7] = system: Spodoptera litura; assay: Insecticidal activity against Spodoptera litura larvae assessed as swollen mitochondria in epidermal cell at 100 ng measured after 6 hr by ultrastructural analysis/electron microscopy; type: functional, organism-based
[8] = system: Spodoptera litura; assay: Insecticidal activity against Spodoptera litura larvae assessed as condensed nuclei in epidermal cell at 100 ng measured after 4 hr by ultrastructural analysis/electron microscopy; type: functional, organism-based
[9] = system: Sf9; assay: Ultrastructural effect on Spodoptera frugiperda (fall armyworm) sf9 cells assessed as dissociation of polysomes and nuclear swelling at 1 uM measured 4 to 6 hr by electron microscopy; type: functional, cell-based
[10] = system: Spodoptera litura; assay: Insecticidal activity against Spodoptera litura larvae assessed as diluted Golgi apparatus in epidermal cell at 100 ng measured after 6 hr by ultrastructural analysis/electron microscopy; type: functional, organism-based
[11] = system: Spodoptera litura; assay: Insecticidal activity against Spodoptera litura larvae assessed as midgut and ganglia at 100 ng measured after 6 hr by ultrastructural analysis/electron microscopy; type: functional, organism-based
[12] = system: Sf9; assay: Ultrastructural effect on Spodoptera frugiperda (fall armyworm) sf9 cells assessed as mitochondria with disarranged cristae at 1 uM measured 8 hr by electron microscopy; type: functional, cell-based
[13] = system: Sf9; assay: Ultrastructural effect on Spodoptera frugiperda (fall armyworm) sf9 cells assessed as enlarged mitochondria at 1 uM measured 4 to 6 hr by electron microscopy; type: functional, cell-based
[14] = system: Spodoptera litura; assay: Insecticidal activity against Spodoptera litura larvae assessed as muscular and fat tissues underlying the epidermis at 100 ng measured after 6 hr by ultrastructural analysis/electron microscopy; type: functional, organism-based; details: Adipose tissue
[15] = system: Sf9; assay: Ultrastructural effect on Spodoptera frugiperda (fall armyworm) sf9 cells assessed as low density matrix mitochondria at 1 uM measured 4 to 6 hr by electron microscopy; type: functional, cell-based
[16] = system: Spodoptera litura; assay: Insecticidal activity against Spodoptera litura larvae assessed as shorten microvillous projections epidermal cell at 100 ng measured after 6 hr by ultrastructural analysis/electron; type: functional, organism-based
[17] = system: Spodoptera litura; assay: Insecticidal activity against Spodoptera litura larvae assessed as paralysis at 100 ng measured after 6 hr; type: functional, organism-based
[18] = system: Spodoptera litura; assay: Insecticidal activity against Spodoptera litura larvae assessed as decrease in mobility at 100 ng measured after 4 hr; type: functional, organism-based
[19] = system: Spodoptera litura; assay: Insecticidal activity against Spodoptera litura larvae assessed intracytoplasmic ultrastructures of the epidermal cell at 100 ng measured after 2 hr by ultrastructural analysis/electron microscopy; type: functional, organism-based
[20] = system: Spodoptera litura; assay: Insecticidal activity against Spodoptera litura larvae assessed as diluted rough endoplasmic reticula in epidermal cell at 100 ng measured after 6 hr by ultrastructural analysis/electron microscopy; type: functional, organism-based
[21] = system: Sf9; assay: Ultrastructural effect on Spodoptera frugiperda (fall armyworm) sf9 cells assessed as decrease in mitochondrial number at 1 uM measured 4 to 6 hr by electron microscopy; type: functional, cell-based

FC(F)(F)c1ccc(OCCCOc2c(Cl)cc(OCC=C(Cl)Cl)cc2Cl)nc1
Activity [1]: inactive
Activity [2]: Active
Activity [3]: inactive
Activity [4]: inactive
Activity [5]: Active
Activity [6]: Active
Activity [7]: Active
Activity [8]: Active
Activity [9]: Active
Activity [10]: Active
Activity [11]: inactive
Activity [12]: Active
Activity [13]: Active
Activity [14]: inactive
Activity [15]: Active
Activity [16]: Active
Activity [17]: Active
Activity [18]: Active
Activity [19]: inactive
Activity [20]: Active
Activity [21]: Active
